Here are results for one compound from patent US20190160035A1, “METHOD OF TREATMENT” (QBIOTICS LIMITED, priority 2016, published 2019).

Assay [1] concerns MCT (cutaneous and subcutaneous). Description: Example 5: Compound 1 injection with oral prednisolone and antihistamine co-therapy, RECIST v.1.1 tumor response. It is filed as in vivo, Canis lupus familiaris (dog). To be noted: 1 mg/kg/day, 24 h pre-treatment and 7 days post-treatment. From the text:
This study investigates the efficacy and safety of Compound 1 injection for MCT treatment in the presence of corticosteroids administered under defined clinical situations.
Dogs were selected for the study if they met the criteria in Table 1 (Example 1) but where the dog has at least one MCT.
Wherever possible, the tumor and a 2 cm border surrounding the tumor was shaved prior to treatment. To deliver the drug, the needle of the dosing syringe was inserted into the tumor at the injection point and moved in a radial manner in 2- and 3-dimensions with drug delivered to the tumor mass. Study dogs were clinically examined at 2-4 and 24 hours, and 7 (+2), 14 (+2) and 28 (+2) days post-treatment (and unscheduled visits at attending veterinarian discretion).
(§1) Each supervising veterinarian was given latitude to provide and record prophylactic and supportive medications as deemed appropriate for managing potential paraneoplastic events and tumor site necrosis following Compound 1 treatment. However, prednisolone and antihistamines were used as co-therapy. Prednisolone therapy commenced on Day −1 and continued for a further 7 days. H1 and H2 antihistamine therapy (chlorpheniramine and famotidine respectively) commenced on the morning of drug treatment and continued for a further 6 days (see Table 23).
(§2) RECIST v.1.1 results are summarised in Table 28 which also includes a measure of neoadjuvant prednisolone action (potential tumor shrinkage) between screening and immediate pre-treatment tumor evaluation. Sixteen (16) dogs and eighteen (18) tumors were treated. Raw data for RECIST assessment was collected on Day 0 (immediately pre-treatment) and on Day 28 for fifteen (15) cases. […] With the remaining three (3) cases (C05-T-18, C05-V-01, and C05-V-02), the dogs were not available on Day 28 for RECIST assessment. For dog C05-T-18, the injection site was measured as CR on Days 21 and 37. […] For dog C05-V-01, the injection site was measured as PR on Days 21 and 37 (55% and 60% RECIST reduction respectively). […] For dog […], due to the progressive nature of disease, the animal was removed from study on Day 21.

The next assay relates to MCT. Description: Example 5: neoadjuvant prednisolone action (tumor change between screening and immediate pre-treatment evaluation). Format: in vivo, Canis lupus familiaris (dog).
Text: as §1, §2

Where [2] appears, read: following 24 h neoadjuvant prednisolone, dog C05-T-17.
The mark [3] stands for this setting: per case (one dog tumor per line), negative = increase.

“And” between values parts separate entries of the source, which are not always exact repeats. Equal values may be shown once.

As to `C[C@]12C=CC(=O)C=C1CC[C@@H]1[C@@H]2[C@@H](O)C[C@@]2(C)[C@H]1CC[C@]2(O)C(=O)CO` [prednisolone], the “Effect of oral prednisolone on drug (Compound 1) action” value in assay [1] was “limited or no suppressive effects”. Moreover, in the assay on MCT (Mean of cases), the “RECIST reduction following 24 h prednisolone administration, Mean” value was 5% and the “Tumor vol (cm^3) reduction following 24 h prednisolone administration, Mean” value is given as 27%. Further, in the assay with MCT (Median of cases), the “RECIST reduction following 24 h prednisolone administration, Median” value amounted to 6% and the “Tumor vol (cm^3) reduction following 24 h prednisolone administration, Median” value was 31%. Also, in the assay with MCT (setting [2]), the “Decrease in RECIST measure from screening to pre-treatment evaluation” value was found to be 6% and the “Decrease in tumor volume from screening to pre-treatment evaluation” value was determined as 31%. Further, in the assay with MCT (setting [3]), the “Tumor response following 24 h prednisolone administration (screening to immediate pre-treatment): RECIST reduction” value was −5% and 8% and −23% and 39% and −12% and 0% and 16% and −8% and 28% and 12% and 20% and 6% and 34% and −26% and −20%; the “Tumor response following 24 h prednisolone administration (screening to immediate pre-treatment): Tumor vol (cm^3) reduction” value was 23% and 62% and −36% and 71% and 61% and 13% and 59% and 35% and 45% and 27% and 31% and 76% and −118% and 14%.
